Earlier results on one compound are cited in patent US9006272B2, “Pharmaceutical compositions and method for treating inflammation in cattle and other animals” (Intervet Inc., priority 2006, dated 2015).

For this data set the following is noted: background statement.

Structures are written as SMILES.

On to `Cc1c(Nc2ncccc2C(=O)O)cccc1C(F)(F)F` [flunixin meglumine], for which the lipid solubility entry is on record as “very poor”.
